According to patent publication US4460582A, “3-Carboxybenzyl cephems” (Beecham Group P.L.C., priority 1981, dated 1984):
Where a name gives a salt, the structure may show the parent alone.

Key:
Assay type in all cases: cell-based
[1] = tested on: Pseudomonas aeruginosa A; test: MIC in nutrient broth
Source text: (§1) The minimum inhibitory concentrations (MIC) of the
(§2) compound of Examples 2 and 4 found necessary to prevent
(§3) growth of various bacteria in nutrient broth were as […]

[2] = tested on: Streptococcus pneumoniae CN 33; test: MIC in nutrient broth; settings: CN33
Source text: as §1, §2, §3

[3] = tested on: Citrobacter freundii E 8; test: MIC in nutrient broth; settings: E8
Source text: as §1, §2, §3

[4] = tested on: Enterobacter cloacae N 1; test: MIC in nutrient broth; settings: N1
Source text: as §1, §2, §3

[5] = tested on: Klebsiella aerogenes A; test: MIC in nutrient broth
Source text: as §1, §2, §3

[6] = tested on: Bacillus subtilis A; test: MIC in nutrient broth
Source text: as §1, §2, §3

[7] = tested on: Salmonella typhimurium CT 10; test: MIC in nutrient broth; settings: Salmonella enterica
Source text: as §1, §2, §3

[8] = tested on: Proteus mirabilis 977; test: MIC in nutrient broth
Source text: as §1, §2, §3

[9] = tested on: Staphylococcus aureus Oxford; test: MIC in nutrient broth
Source text: as §1, §2, §3

[10] = tested on: Proteus vulgaris W 091; test: MIC in nutrient broth; settings: W091
Source text: as §1, §2, §3

[11] = tested on: Proteus rettgeri WM 16; test: MIC in nutrient broth; settings: Providencia rettgeri, WM16
Source text: as §1, §2, §3

[12] = tested on: Escherichia coli 0111; test: MIC in nutrient broth
Source text: as §1, §2, §3

[13] = tested on: Escherichia coli JT 39 (R^+); test: MIC in nutrient broth
Source text: as §1, §2, §3

[14] = tested on: Serratia marcescens US 20; test: MIC in nutrient broth; settings: US20
Source text: as §1, §2, §3

[15] = tested on: Streptococcus faecalis I; test: MIC in nutrient broth; settings: Enterococcus faecalis
Source text: as §1, §2, §3

[16] = tested on: Proteus morganii I 580; test: MIC in nutrient broth; settings: Morganella morganii, I580
Source text: as §1, §2, §3

[17] = tested on: Shigella sonnei MB 11967; test: MIC in nutrient broth; settings: MB11967
Source text: as §1, §2, §3

[18] = tested on: Staphylococcus aureus Russell; test: MIC in nutrient broth
Source text: as §1, §2, §3

[19] = tested on: Streptococcus pyogenes CN 10; test: MIC in nutrient broth; settings: CN10
Source text: as §1, §2, §3

[20] = tested on: Escherichia coli JT4; test: MIC on agar
Source text: (§4) The Minimum Inhibitory concentrations (MIC) of the compound
(§5) of Example 6 found necessary to prevent growth of various

[21] = tested on: Neisseria catarrhalis 1502; test: MIC on agar
Source text: as §4, §5

[22] = tested on: Serratia marcescens US32; test: MIC on agar
Source text: as §4, §5

[23] = tested on: Klebsiella aerogenes A; test: MIC on agar
Source text: as §4, §5

[24] = tested on: Staphylococcus aureus Oxford; test: MIC on agar
Source text: as §4, §5

[25] = tested on: Bacillus subtilis; test: MIC on agar
Source text: as §4, §5

[26] = tested on: Proteus mirabilis C977; test: MIC on agar
Source text: as §4, §5

[27] = tested on: Streptococcus pyogenes CN10; test: MIC on agar
Source text: as §4, §5

[28] = tested on: Enterobacter cloacae N1; test: MIC on agar
Source text: as §4, §5

[29] = tested on: Proteus rettgeri; test: MIC on agar; settings: Providencia rettgeri
Source text: as §4, §5

[30] = tested on: Streptococcus faecalis I; test: MIC on agar; settings: Enterococcus faecalis
Source text: as §4, §5

[31] = tested on: Pseudomonas aeruginosa Dalgleish; test: MIC on agar
Source text: as §4, §5

[32] = tested on: Pseudomonas aeruginosa NCTC 10662; test: MIC on agar; settings: NCTC10662
Source text: as §4, §5

[33] = tested on: Proteus morganii; test: MIC on agar; settings: Morganella morganii
Source text: as §4, §5

[34] = tested on: Escherichia coli JT425; test: MIC on agar
Source text: as §4, §5

[35] = tested on: Staphylococcus aureus Russell; test: MIC on agar
Source text: as §4, §5

SMILES | MIC [1] [µg/mL] | MIC [2] [µg/mL] | MIC [3] [µg/mL] | MIC [4] [µg/mL] | MIC [5] [µg/mL] | MIC [6] [µg/mL] | MIC [7] [µg/mL] | MIC [8] [µg/mL] | MIC [9] [µg/mL] | MIC [10] [µg/mL] | MIC [11] [µg/mL] | MIC [12] [µg/mL] | MIC [13] [µg/mL] | MIC [14] [µg/mL] | MIC [15] [µg/mL] | MIC [16] [µg/mL] | MIC [17] [µg/mL] | MIC [18] [µg/mL] | further results
CCO/N=C(\C(=O)N[C@@H]1C(=O)N2C(C(=O)O)=C(Cc3ccc(C(=O)O)cc3)CS[C@H]12)c1csc(N)n1 [Example 4, (6R,7R)-3-(4-Carboxybenzyl)-7-[2,Z-ethoxyimino-2-(2-aminothiazol-4-yl)-acetamido]-ceph-3-em-4-carboxylic acid trifluoroacetic acid salt] | > 100 | 6.2 | 100 | 50 | 0.1 | 12.5 | 0.8 | 0.2 | 3.1 | 3.1 | 100 | 3.1 | 1.6 | 3.1 | > 100 | 100 | 0.8 | 6.2 | 
CO/N=C(\C(=O)N[C@@H]1C(=O)N2C(C(=O)O)=C(Cc3ccc(C(=O)O)cc3)CS[C@H]12)c1csc(N)n1 [Example 2, (6R,7R)-3-(4-Carboxybenzyl)-7-[2,Z-methoxyimino-2-(2-aminothiazol-4-yl)-acetamido]ceph-3-em-4-carboxylic acid trifluoroacetic acid salt] | > 100 | ≤ 0.1 | 25 | 3.1 | 0.2 | 25 | 0.4 | 0.8 | 12.5 | 12.5 | 12.5 | 6.2 | 6.2 | 12.5 | > 100 | 1.6 | 0.4 | 12.5 | MIC [19]: ≤ 0.1 µg/mL
CC(C)(O/N=C(\C(=O)N[C@@H]1C(=O)N2C(C(=O)O)=C(Cc3ccc(C(=O)O)cc3)CS[C@H]12)c1csc(N)n1)C(=O)O [Example 6, (6R,7R)-3-(4-Carboxybenzyl)-7-[2,Z-(2-carboxyprop-2-oxyimino)-2-(2-aminothiazol-4-yl)-acetamido]-ceph-3-em-4-carboxylic acid trifluoroacetic acid salt] |  |  |  |  |  |  |  |  |  |  |  |  |  |  |  |  |  |  | MIC [20]: 2.5 µg/mL; MIC [21]: < 0.02 µg/mL; MIC [22]: 2.5 µg/mL; MIC [23]: 0.2 µg/mL; MIC [24]: 100 µg/mL; MIC [25]: > 100 µg/mL; MIC [26]: 0.05 µg/mL; MIC [27]: 2.5 µg/mL; MIC [28]: 1 µg/mL; MIC [29]: 0.2 µg/mL; MIC [30]: > 100 µg/mL; MIC [31]: 2.5 µg/mL; MIC [32]: 5 µg/mL; MIC [33]: 2.5 µg/mL; MIC [34]: 25 µg/mL; MIC [35]: > 100 µg/mL
